The values below come from US20240254138A1, “TRICYCLIC PYRIMIDINES AS CYCLIN-DEPENDENT KINASE 7 (CDK7) INHIBITORS” (JANSSEN PHARMACEUTICA NV, priority 2021, published 2024).

For experiment [1], the system named is RNA Polymerase II Serine 5 phosphorylation (Rpb1 CTD, downstream substrate of CDK7) in A549 cells. Put plainly: Imaging-based cellular RNA PolII Ser5 phosphorylation assay in A549 cells. Type of experiment: cell-based, human. Conditions: wild-type CDK7, RNA PolII Ser5 phosphorylation, averaged over all measurements; for IC50: Homo sapiens, A549, A549 cells, read-out: CDK7_A549 Wild-type CDK7 (pIC50) (converted); for CDK7_A549 Wild-type CDK7 (pIC50): A549 cells. The source says:
(§1) To evaluate inhibition of CDK7 kinase activity, a 384-well automated imaging assay was used. This assay detects Serine 5 phosphorylation on a unique heptapeptide sequence in the C-terminal domain of Rpb1 subunit of RNA polymerase II, the downstream substrate of CDK7. This heptapeptide sequence is repeated up to 52 times in the CTD of Rpb1.
(§2) A549 adenocarcinoma human alveolar basal epithelial cells (ATCC, CCL-185), rabbit Phospho-Rpb1 CTD (Ser5) antibody (D9N51 (Cell Signaling Technology)), DMEM (Sigma), Fetal Bovine Serum (Biowest), L-glutamine (Sigma), Penicillin/Streptomycin (Life Technologies), Sodium Pyruvate (Sigma), Hepes (Sigma), poly-D-lysine coated μclear 384 black plates (Greiner), formaldehyde (PolySciences), D-PBS (Sigma), Methanol (Sigma), Alexa Fluor 488 goat anti rabbit IgG secondary antibody (Life Technologies), HCS CellMask™ Deep Red stain (Life Technologies), Hoechst 33258 (Invitrogen).
(§3) RNA Polymerase II Serine 5 phosphorylation was detected using a specific rabbit Phospho-Rpb1 CTD (Ser5) antibody. A549 adenocarcinoma human alveolar basal epithelial cells were seeded in 20 μl medium (DMEM supplemented with 1% Fetal Bovine Serum (heat inactivated 30′ 56° C.), 2 mM L-glutamine, 50 U/ml penicillin 50 μg/ml streptomycin, 1 mM sodium pyruvate and 50 mM hepes) at 1000 cells/well and cultured in poly-D-lysine coated μclear 384 black plates for 20 hours at 37° C. and 5% CO2.
(§4) After incubation cells were challenged with compound for 3 hours at 37° C. and 5% CO2. DMSO was used as high control and as low control 10 μM of the following reference compound was used:
(§5) 40 nl of test compounds and controls were spotted in cell plates using Echo Liquid Handler (Echo 550, Labcyte). Incubation was followed by 20 minutes fixation with 20 μl 10% formaldehyde at room temperature. Medium/formaldehyde solution was removed, plates were washed 3 times with 30 μl D-PBS (w/o Ca^2+ and Ma^2+) and permeabilization was done by adding 20 μl ice cold methanol for 20 minutes. Cells were washed again 3 times with 30 μl D-PBS and 20 μl blocking buffer (25 ml fetal bovine serum in 500 ml D-PBS) was added for 1 hour.
(§6) After removing blocking buffer 20 μl 1/1000 primary antibody rabbit Phospho-Rpb1 CTD (Ser5) antibody was added which binds to the phosphorylated Serine5 of the heptapeptide sequences in the CTD of Rpb1. Primary antibody was removed, and plates were washed 3 times with 30 μl D-PBS followed by addition of 20 μl 1/2000 Alexa Fluor 488 goat anti rabbit IgG secondary antibody for final detection of Phospho-Rpb1 CTD (Ser5) together with 1/5000 HCS CellMask™ Deep Red stain for membrane staining and 1/5000 Hoechst 33258 for nucleus staining. Last, plates were washed 2 times with 30 μl D-PBS and wells were filled with 40 μL D-PBS, plates were sealed (Thermowell sealing tape) and stored at 4° C. until reading. Plates were read with Opera Phenix (Perkin Elmer) with 10× air objective. Data were calculated and analyzed in Phaedra.
(§7) IC50 values were calculated using the following formula: […]
(§8) Average value of all HC's and all LC's are used for normalizations.
(§9) A best-fit curve is fitted by a minimum sum of squares method to the plot of % Control vs. compound concentration. From this an IC50 value can be obtained. An estimate of the slope of the plot in terms of the Hill coefficient is also obtained.

Experiment [2] deals with RNA Polymerase II Serine 5 phosphorylation in A549 cells overexpressing CDK7-mutant (C312S). Put plainly: Imaging-based cellular RNA PolII Ser5 phosphorylation assay in A549 cells overexpressing CDK7-mutant (C312S). To be noted: RNA PolII Ser5 phosphorylation, averaged over all measurements; for IC50: Homo sapiens, A549, A549 cells overexpressing CDK7-mutant (C312S), read-out: CDK7_A549 mutant hCDK7(pIC50) (converted); for CDK7_A549 mutant hCDK7(pIC50): A549 cells overexpressing CDK7-mutant (C312S). Type of experiment: cell-based, human.
Text: as §1, §2, §3, §4, §5, §6, §7, §8, §9
In parallel this assay was performed in A549 cells overexpressing CDK7-mutant (C312S) to evaluate the effect of the covalent bond on potency and to screen for potential off-target effects. Mutation of Cysteine to Serine (C312S), a less nucleophilic amino acid, prevents CDK7 inhibitors from covalently binding to CDK7 and from inhibiting CDK7 activity in an irreversible manner. A stably transduced A549 cell pool was generated that overexpresses CDK7 mutant (C312S), but also expresses endogenous CDK7-WT. Covalent binders targeting the cysteine at position 312 will show a shift in potency in A549 cells overexpressing mutant C312S CDK7.

As for `C#CCCN(C)C/C=C/C(=O)N1CC(N2CCC(c3ccc4c(c3)Nc3nccc(N5CCOCC5)c3[C@H](C)O4)CC2)C1` (single isomer, unassigned) [Compound 195], the figures for the IC50 in experiment [1] and in experiment [2] were 0.129 µM and over 10 µM, respectively.

On to `C#Cc1cc2c(cc1C1CCN(C3CN(C(=O)C=C)C3)CC1)Nc1nccc(N3CCOCC3)c1[C@H](C)O2` (single isomer, unassigned) [Compound 209], for which the IC50 was 0.1 µM in experiment [1] and over 10 µM in experiment [2].

Consider `C#Cc1cc2c(cc1C1CCN(C3CN(C(=O)C=C)C3)CC1)Nc1nccc(N3CCOCC3)c1[C@@H](C)O2` (single isomer, unassigned) [Compound 210], for which the IC50 in experiment [1] was 8.51 µM; in experiment [2], over 10 µM.

`C=CC(=O)N1CC(N2CC(c3cc4c(c(C)n3)O[C@@H](C)c3c(N5CCOCC5)ccnc3N4)C2)C1` (single isomer, unassigned) [Compound 271]: the IC50 in experiment [1] was 3.16 µM; in experiment [2] it was over 10 µM.

In the case of `C=CC(=O)N1CC[C@H](N2CCC(c3cc4c(c(C)n3)OCc3c(-c5cnn(C)c5)ccnc3N4)CC2)C1` (single isomer, unassigned) [Compound 293], the figures for the IC50 in experiment [1] and in experiment [2] were 0.102 µM and over 10 µM, respectively.

Consider `C=CC(=O)N1CC[C@@H](N2CCC(c3cc4c(c(C)n3)OCc3c(N5CCOCC5)ccnc3N4)CC2)C1` (single isomer, unassigned) [Compound 294], for which the “CDK7_A549 Wild-type CDK7 (pIC50)” value in experiment [1] turned out to be 7.24. In addition, the “CDK7_A549 mutant hCDK7(pIC50)” value in experiment [2] is on record as under 5.

On to `C/C=C/C(=O)N1CC[C@@H](N2CCC(c3cc4c(c(C)n3)OCc3c(-c5cnn(C)c5)ccnc3N4)CC2)C1` (single isomer, unassigned) [Compound 302], for which the results for the IC50 in experiment [1] and in experiment [2] were about 10 µM and over 10 µM, respectively.

Take `C/C=C/C(=O)N1CC[C@H](N2CCC(c3cc4c(c(C)n3)OCc3c(-c5cnn(C)c5)ccnc3N4)CC2)C1` (single isomer, unassigned) [Compound 307]: the IC50 in experiment [1] and in experiment [2] was over 10 µM in each case.

Take `C=C(C)C(=O)N1CC[C@@H](N2CCC(c3cc4c(c(C)n3)OCc3c(-c5cnn(C)c5)ccnc3N4)CC2)C1` (single isomer, unassigned) [Compound 311]: the IC50 in experiment [1] and in experiment [2] was over 10 µM in each case.

On to `C=C(C)C(=O)N1CC[C@H](N2CCC(c3cc4c(c(C)n3)OCc3c(-c5cnn(C)c5)ccnc3N4)CC2)C1` (single isomer, unassigned) [Compound 312], for which the IC50 in experiment [1] and in experiment [2] was over 10 µM in each case.

On to `C=CC(=O)N1CC[C@@H](N2CC(c3cc4c(c(C)n3)O[C@@H](C)c3c(C5CCOCC5)ccnc3N4)C2)C1` (single isomer, unassigned) [Compound 334], for which the IC50 is 5.25 µM in experiment [1] and over 10 µM in experiment [2].

On to `C=CC(=O)N1CC[C@H](N2CC(c3cc4c(c(C)n3)O[C@@H](C)c3c(C5CCOCC5)ccnc3N4)C2)C1` (single isomer, unassigned) [Compound 337], for which the figures for the IC50 in experiment [1] and in experiment [2] were over 5.01 µM and over 10 µM, respectively.

On to `CC#CC(=O)N1CC(N2CC(c3cc4c(c(C)n3)O[C@@H](C)c3c(N5CCOCC5)ccnc3N4)C2)C1` (single isomer, unassigned) [Compound 356], for which the figures for the IC50 in experiment [1] and in experiment [2] were 7.76 µM and over 10 µM, respectively.

In the case of `CC#CC(=O)N1CCC(N2CC(c3cc4c(c(C)n3)O[C@H](C)c3c(N5CCOCC5)ccnc3N4)C2)CC1` (single isomer, unassigned) [Compound 358], the IC50 is 0.0398 µM in experiment [1] and 6.17 µM in experiment [2].

With `CC#CC(=O)N1CCC(N2CC(c3cc4c(c(C)n3)O[C@@H](C)c3c(N5CCOCC5)ccnc3N4)C2)CC1` (single isomer, unassigned) [Compound 360], the results for the IC50 in experiment [1] and in experiment [2] were 0.676 µM and over 10 µM, respectively.

With `CC#CC(=O)N1CC(N2CCC(c3cc4c(c(C)n3)O[C@@H](C)c3c(N5CCOCC5)ccnc3N4)CC2)C1` (single isomer, unassigned) [Compound 371], the IC50 in experiment [1] is 2.19 µM; in experiment [2], over 10 µM.

Turning to `CC#CC(=O)N1CC(N2CC[C@H](c3cc4c(c(C)n3)O[C@@H](C)c3c(N5CCOCC5)ccnc3N4)C2)C1` (single isomer, unassigned) [Compound 395], the IC50 in experiment [1] and in experiment [2] was over 10 µM each time.

With `CC#CC(=O)N1CC(N2CC[C@H](c3cc4c(c(C)n3)O[C@H](C)c3c(N5CCOCC5)ccnc3N4)C2)C1` (single isomer, unassigned) [Compound 397], the IC50 in experiment [1] and in experiment [2] was over 10 µM each time.

For `CC#CC(=O)N1CC(N2CCC(c3cc4c(c(C)n3)O[C@H](C)c3c(C5CCOCC5)ccnc3N4)CC2)C1` (single isomer, unassigned) [Compound 405], the IC50 in experiment [1] is 0.0891 µM; in experiment [2], over 10 µM.

For the compound `C=CC(=O)N1CCC(N2CC(c3cc4c(c(C)n3)O[C@H](C)c3c(N5CCOCC5)ccnc3N4)C2)CC1` (single isomer, unassigned) [Compound 423], the IC50 in experiment [1] was 0.0589 µM; in experiment [2], 5.89 µM.

As for `C=CC(=O)N1CCC(N2CC(c3cc4c(c(C)n3)O[C@@H](C)c3c(N5CCOCC5)ccnc3N4)C2)CC1` (single isomer, unassigned) [Compound 430], the IC50 was 0.933 µM in experiment [1] and over 10 µM in experiment [2].

Consider `CC#CC(=O)N1CC(n2cc(-c3cc4c(c(C)n3)O[C@H](C)c3c(N5CCOCC5)ccnc3N4)cn2)C1` (single isomer, unassigned) [Compound 434], for which the IC50 in experiment [1] was 4.57 µM; in experiment [2], over 10 µM.

As to `CC#CC(=O)N1CCC(N2CC[C@H](c3cc4c(c(C)n3)OCc3c(N5CCOCC5)ccnc3N4)C2)CC1` (single isomer, unassigned) [Compound 438], the IC50 in experiment [1] was 0.191 µM; in experiment [2] it was 3.09 µM.

Turning to `CC#CC(=O)N1CC(N2CC(c3cc4c(c(C)n3)O[C@@H](C)c3c(N5CCOCC5)ccnc3N4)C2)C1` (single isomer, unassigned) [Compound 441], the “CDK7_A549 Wild-type CDK7 (pIC50)” value in experiment [1] is recorded as under 5. Further, in experiment [2], the “CDK7_A549 mutant hCDK7(pIC50)” value is reported as under 5.

`CC#CC(=O)N1CC(N2CC[C@@H](c3cc4c(c(C)n3)OCc3c(N5CCOCC5)ccnc3N4)N(C)CC2)C1` (single isomer, unassigned) [Compound 446]: the IC50 was 0.794 µM in experiment [1] and over 10 µM in experiment [2].

`CC#CC(=O)N1CC(N2CC[C@H](c3cc4c(c(C)n3)OCc3c(N5CCOCC5)ccnc3N4)N(C)CC2)C1` (single isomer, unassigned) [Compound 448]: the IC50 in experiment [1] was 0.209 µM; in experiment [2], 8.32 µM.

For `CC#CC(=O)N1CC(n2cc(-c3cc(C#N)c4c(c3)Nc3nccc(N5CCOCC5)c3[C@@H](C)O4)cn2)C1` (single isomer, unassigned) [Compound 450], the IC50 in experiment [1] is 1.78 µM; in experiment [2], over 10 µM.

Consider `C#Cc1cc(C2CN([C@@H]3CCN(C(=O)C=C)C3)C2)cc2c1OCc1c(-c3cnn(C)c3)ccnc1N2` (single isomer, unassigned) [Compound 473], for which the IC50 is 0.166 µM in experiment [1] and over 10 µM in experiment [2].
